# Measured values reported in patent US5593984A, “Cephalosporin derivatives” (Yuhan Corporation, priority 1992, dated 1997).
# Experiments:
# Type in all cases: cell-based
# B. subtilis ATCC 6633 = experiment: MIC by agar dilution, B. subtilis ATCC 6633; details: Bacillus subtilis, ATCC6633, 17 h; B. subtilis ATCC 6633; agar dilution, Mueller-Hinton agar; read-out: Minimal Inhibitory Concentration (MIC)
# Method: (§1) These MIC values were determined by agar dilution method: that is, two-fold dilutions of each of the test compounds were made and dispersed in a Mueller-Hinton agar medium; standard test strain which had the 10^6 CFU (Colony Forming Unit) per ml was inoculated on the medium with microplanter (Toyo, Japan), and incubated at 35°-37° C. for 17±1 hours. The structures of Ceftazidime (CAZ) and Cefotaxime (CTX) which are used as control compounds are as follows: [drawing 12]
# Staph. aureus ATCC 6538P = experiment: MIC by agar dilution, Staph. aureus ATCC 6538P; details: Staphylococcus aureus, ATCC6538P, 17 h; Staph. aureus ATCC 6538P; agar dilution, Mueller-Hinton agar; read-out: Minimal Inhibitory Concentration (MIC)
# Method: as §1
# Staph. aureus Smith = experiment: MIC by agar dilution, Staph. aureus Smith; details: Staphylococcus aureus, 17 h, Mueller-Hinton agar, read-out: Minimal Inhibitory Concentration (MIC)
# Method: as §1
# Staph. aureus C-57 = experiment: MIC by agar dilution, Staph. aureus C-57; details: Staphylococcus aureus, C57, 17 h, Mueller-Hinton agar, read-out: Minimal Inhibitory Concentration (MIC)
# Method: as §1
# Staph. aureus C-5113 = experiment: MIC by agar dilution, Staph. aureus C-5113; details: Staphylococcus aureus, C5113, 17 h, Mueller-Hinton agar, read-out: Minimal Inhibitory Concentration (MIC)
# Method: as §1
# Staph. aureus C-5216 = experiment: MIC by agar dilution, Staph. aureus C-5216; details: Staphylococcus aureus, C5216, 17 h, Mueller-Hinton agar, read-out: Minimal Inhibitory Concentration (MIC)
# Method: as §1
# [1] = system: S. epidermidis ATCC 12228; experiment: MIC by agar dilution, S. epidermidis ATCC 12228; details: Staphylococcus epidermidis, ATCC12228, 17 h; S. epidermidis ATCC 12228; agar dilution, Mueller-Hinton agar; read-out: Minimal Inhibitory Concentration (MIC)
# Method: as §1
# Ent. aerogenes IFO 12979 = experiment: MIC by agar dilution, Ent. aerogenes IFO 12979; details: Klebsiella aerogenes, IFO12979, 17 h, Mueller-Hinton agar, read-out: Minimal Inhibitory Concentration (MIC)
# Method: as §1
# Ent. cloacae IFO 13535 = experiment: MIC by agar dilution, Ent. cloacae IFO 13535; details: Enterobacter cloacae, IFO13535, 17 h; Ent. cloacae IFO 13535; agar dilution, Mueller-Hinton agar; read-out: Minimal Inhibitory Concentration (MIC)
# Method: as §1
# E. coli NIHJ JC-2 = experiment: MIC by agar dilution, E. coli NIHJ JC-2; details: Escherichia coli, NIHJJC2, 17 h; E. coli NIHJ JC-2; agar dilution, Mueller-Hinton agar; read-out: Minimal Inhibitory Concentration (MIC)
# Method: as §1
# E. coli No. 29 = experiment: MIC by agar dilution, E. coli No. 29; details: Escherichia coli, 17 h; E. coli No. 29; agar dilution, Mueller-Hinton agar; read-out: Minimal Inhibitory Concentration (MIC)
# Method: as §1
# E. coli DY-1 = experiment: MIC by agar dilution, E. coli DY-1; details: Escherichia coli, DY1, 17 h; E. coli DY-1; agar dilution, Mueller-Hinton agar; read-out: Minimal Inhibitory Concentration (MIC)
# Method: as §1
# K. pneumoniae NCTC 9632 = experiment: MIC by agar dilution, K. pneumoniae NCTC 9632; details: Klebsiella pneumoniae, NCTC9632, 17 h; K. pneumoniae NCTC 9632; agar dilution, Mueller-Hinton agar; read-out: Minimal Inhibitory Concentration (MIC)
# Method: as §1
# M. morganii DY-1 = experiment: MIC by agar dilution, M. morganii DY-1; details: Morganella morganii, DY1, 17 h; M. morganii DY-1; agar dilution, Mueller-Hinton agar; read-out: Minimal Inhibitory Concentration (MIC)
# Method: as §1
# [2] = system: Ps. aeruginosa ATCC 10145; experiment: MIC by agar dilution, Ps. aeruginosa ATCC 10145; details: Pseudomonas aeruginosa, ATCC10145, 17 h, Mueller-Hinton agar, read-out: Minimal Inhibitory Concentration (MIC)
# Method: as §1
# [3] = system: Ps. aeruginosa NCTC 10490; experiment: MIC by agar dilution, Ps. aeruginosa NCTC 10490; details: Pseudomonas aeruginosa, NCTC10490, 17 h, Mueller-Hinton agar, read-out: Minimal Inhibitory Concentration (MIC)
# Method: as §1
# Ps. aeruginosa DY-2 = experiment: MIC by agar dilution, Ps. aeruginosa DY-2; details: Pseudomonas aeruginosa, DY2, 17 h; Ps. aeruginosa DY-2; agar dilution, Mueller-Hinton agar; read-out: Minimal Inhibitory Concentration (MIC)
# Method: as §1
# P. vulgaris NCTC 8313 = experiment: MIC by agar dilution, P. vulgaris NCTC 8313; details: Proteus vulgaris, NCTC8313, 17 h; P. vulgaris NCTC 8313; agar dilution, Mueller-Hinton agar; read-out: Minimal Inhibitory Concentration (MIC)
# Method: as §1
# Prov. stuartii IFO 12930 = experiment: MIC by agar dilution, Prov. stuartii IFO 12930; details: Providencia stuartii, IFO12930, 17 h, Mueller-Hinton agar, read-out: Minimal Inhibitory Concentration (MIC)
# Method: as §1
# [4] = system: Ser. marcescens IFO 12648; experiment: MIC by agar dilution, Ser. marcescens IFO 12648; details: Serratia marcescens, IFO12648, 17 h; Ser. marcescens IFO 12648; agar dilution, Mueller-Hinton agar; read-out: Minimal Inhibitory Concentration (MIC)
# Method: as §1
SMILES,MIC (B. subtilis ATCC 6633) [µg/mL],MIC (Staph. aureus ATCC 6538P) [µg/mL],MIC (Staph. aureus Smith) [µg/mL],MIC (Staph. aureus C-57) [µg/mL],MIC (Staph. aureus C-5113) [µg/mL],MIC (Staph. aureus C-5216) [µg/mL],MIC [1] [µg/mL],MIC (Ent. aerogenes IFO 12979) [µg/mL],MIC (Ent. cloacae IFO 13535) [µg/mL],MIC (E. coli NIHJ JC-2) [µg/mL],MIC (E. coli No. 29) [µg/mL],MIC (E. coli DY-1) [µg/mL],MIC (K. pneumoniae NCTC 9632) [µg/mL],MIC (M. morganii DY-1) [µg/mL],MIC [2] [µg/mL],MIC [3] [µg/mL],MIC (Ps. aeruginosa DY-2) [µg/mL],MIC (P. vulgaris NCTC 8313) [µg/mL],MIC (Prov. stuartii IFO 12930) [µg/mL],MIC [4] [µg/mL]
"CON=C(C(=O)NC1C(=O)N2C(C(=O)[O-])=C(C[n+]3ccn4c(C#N)ccc4c3)CSC12)c1csc(N)n1 (stereo not drawn) [Ex. 13, 7-β-[(Z)-2-(2-aminothiazol-4-yl)-2-methoxyiminoacetamido]-3-(6-cyanopyrrolo[1,2-a]pyrazinium-2-yl)methyl-3-cephem-4-carboxylate]",0.2,0.39,1.56,25,0.78,0.78,0.1,0.012,0.05,0.012,0.012,0.012,0.025,0.025,0.78,0.39,3.13,≤ 0.006,≤ 0.006,0.012
"CON=C(C(=O)NC1C(=O)N2C(C(=O)[O-])=C(C[n+]3ccn4c([N+](=O)[O-])ccc4c3)CSC12)c1csc(N)n1 (stereo not drawn) [Ex. 14, 7-β-[(Z)-2-(2-aminothiazol-4-yl)-2-methoxyiminoacetamido]-3-(6-nitropyrrolo[1,2-a]pyrazinium-2-yl)methyl-3-cephem-4-carboxylate]",0.39,0.39,1.56,25,3.13,1.56,0.05,0.05,0.78,0.1,0.05,0.05,0.05,0.05,6.25,1.56,25,0.012,≤ 0.006,0.1
"CON=C(C(=O)NC1C(=O)N2C(C(=O)[O-])=C(C[n+]3ccn4c(C(N)=O)ccc4c3)CSC12)c1csc(N)n1 (stereo not drawn) [Ex. 15, 7-β-[(Z)-2-(2-aminothiazol-4-yl)-2-methoxyiminoacetamido]-3-(6-carbamoylpyrrolo[1,2-a]pyrazinium-2-yl)methyl-3-cephem-4-carboxylate]",0.05,0.2,0.39,12.5,0.78,0.78,0.025,≤ 0.006,0.1,≤ 0.006,≤ 0.006,≤ 0.006,≤ 0.006,≤ 0.006,0.39,0.1,3.13,0.012,≤ 0.006,0.012
"CCON=C(C(=O)NC1C(=O)N2C(C(=O)[O-])=C(C[n+]3ccn4c(C(N)=O)ccc4c3)CSC12)c1csc(N)n1 (stereo not drawn) [Ex. 16, 7-β-[(Z)-2-(2-aminothiazol-4-yl)-2-ethoxyiminoacetamido]-3-(6-carbamoylpyrrolo[1,2-a]pyrazinium-2-yl)methyl-3-cephem-4-carboxylate]",0.1,0.2,0.78,12.5,1.56,1.56,0.05,0.025,0.78,0.1,0.05,0.025,0.025,0.025,1.56,0.39,6.25,0.012,0.025,0.1
"CON=C(C(=O)NC1C(=O)N2C(C(=O)[O-])=C(C[n+]3ccn4c(C(=O)O)ccc4c3)CSC12)c1csc(N)n1 (stereo not drawn) [Ex. 17, 7-β-[(Z)-2-(2-aminothiazol-4-yl)-2-methoxyiminoacetamido]-3-(6-carboxypyrrolo[1,2-a]pyrazinium-2-yl)methyl-3-cephem-4-carboxylate]",0.1,0.39,0.78,25,1.56,1.56,0.1,0.025,0.39,0.025,0.012,0.025,0.025,0.025,1.56,0.2,3.13,0.012,≤ 0.006,0.05
"CON=C(C(=O)NC1C(=O)N2C(C(=O)[O-])=C(C[n+]3ccn4c(C(C)=O)ccc4c3)CSC12)c1csc(N)n1 (stereo not drawn) [Ex. 18, 7-β-[(Z)-2-(2-aminothiazol-4-yl)-2-methoxyiminoacetamido]-3-(6-acetylpyrrolo[1,2-a]pyrazinium-2-yl)methyl-3-cephem-4-carboxylate]",0.2,0.2,0.78,25,0.78,1.56,0.05,0.012,0.1,0.012,0.025,0.012,0.025,0.025,1.56,0.2,6.25,0.012,0.012,0.012
